Experimental data published in patent US8691195B2, “Peptide having activity of transforming growth factor and production method therefor” (Caregen Co., Ltd., priority 2009, dated 2014).
Ends that are not written are not given here.

Tests used:
B16F10 melanoma cells = experiment: Melanosome changes / cell morphology in α-MSH-treated B16F10 melanoma cells; format: cell-based; conditions: 200 μg/ml α-MSH plus 10 μg/ml peptide, 4 days, FIG. 7
Protocol: (§1) First, B16F10 cells were plated at a 6-well plate in a density of 1×10^5 cells/well and cultured for 3 days. After cell adhesion was observed, medium was changed with a fresh medium containing 2% serum. Cells were incubated with each test group for 4 days: (a) no treatment as negative control; (b) 200 μg/ml α-MSH as a positive control; and (c) 200 μg/ml α-MSH plus 10 μg/ml peptide 2.

[1] = test system: MITF (microphthalmia-associated transcription factor); experiment: RT-PCR of MITF mRNA in α-MSH-treated B16F10 melanoma cells; format: cell-based; conditions: 200 μg/ml α-MSH plus 10 μg/ml peptide, 4 days, FIG. 8
Protocol: (§2) To more clearly check activities of TGF-mimicking peptide on skin whitening in α-MSH-treated B16F10 melanoma cells, mRNA level of TRP1 (tyrosinase-related protein-1), TRP2 and MITF (microphthalmia-associated transcription factor) was measured using RT-PCR.
as §1
(§3) Subsequently, mRNA were extracted from cells and RT-PCR was carried out using primers for TRP1, TRP2 and MITF. The primer sequence is as follows: TRP1 F-primer, 5′-[…]-3′ and TRP1 R-primer, 5′-[…]-3′; TRP2 F-primer, 5′-[…]-3′ and TRP2 R-primer, 5′-[…]-3′; and MITF F-primer, 5′-[…]-3′ and MITF R-primer, 5′-[…]-3′.

TRP2 = experiment: RT-PCR of TRP2 mRNA in α-MSH-treated B16F10 melanoma cells; format: cell-based; conditions: 200 μg/ml α-MSH plus 10 μg/ml peptide, 4 days, FIG. 8
Protocol: as §2, §1, §3

procollagen = experiment: Procollagen production in NIH3T3 fibroblasts (Procollagen ELISA kit); format: cell-based; conditions: NIH3T3, 1 μg/ml or 10 μg/ml, 72 hr, FIG. 9
Protocol: (§4) NIH3T3 cells cultured for 48 hr were incubated with the peptide of the present invention with a concentration of 1 μg/ml or 10 μg/ml for 72 hr, respectively. The levels of procollagen and fibronectin, indicators to show the improvement in skin wrinkle, were examined. The quantification was performed using Procollagen ELISA kit (Takara, Japan) and Fibronectin ELISA kit (CHEMICON, USA).

[2] = test system: TRP1 (tyrosinase-related protein-1); experiment: RT-PCR of TRP1 mRNA in α-MSH-treated B16F10 melanoma cells; format: cell-based; conditions: 200 μg/ml α-MSH plus 10 μg/ml peptide, 4 days, FIG. 8
Protocol: as §2, §1, §3

[3] = Heat stability: residual activity by MTT assay after storage at 40° C.; format: physicochemical; conditions: days 0-100, MTT assay, FIG. 3
Protocol: To evaluate heat stability of the peptide 2 prepared in Example 1, the peptide 2 was dissolved in 50 mM Tris-HCl buffer (pH 8.0) to a concentration of 10 μg/ml. Recombinant TGF-β1 (Sigma) as control was produced from E. coli and dissolved in 50 mM Tris-HCl buffer (pH 8.0) at a concentration of 1 μg/ml. The prepared solutions were introduced into glass vials and kept to stand at 40° C. Afterwards, the solutions were taken on days 0, 1, 10, 25, 50, 75 and 100, and subjected to MTT assay (Scudiero, D. A., et al., Cancer Res., 48: 4827-4833 (1988)) to determine residual activities of the peptide and recombinant TGF-β1 (FIG. 3).

tyrosinase = experiment: Tyrosinase activity in α-MSH-treated B16F10 cells (L-DOPA, absorbance at 405 nm); format: cell-based; conditions: 4 days, FIG. 6
Protocol: For verifying effects on skin whitening of the peptide synthesized in Example 1 and TGF-β, cells were treated with α-MSH and the inhibition in melanin generation was measured. B16F10 cells (Korean Cell Line Bank) were inoculated in a density of 1×10^5 cells/well and cultured in DMEM for 3 days. After cell adhesion was observed, medium was changed with a fresh medium containing 2% serum. Cells were incubated with each test group for 4 days: (a) no treatment as negative control; (b) 200 μg/ml α-MSH as a positive control; and (c) 200 μg/ml α-MSH plus 1 μg/ml or 10 μg/ml peptide 2. […] Subsequently, cells were harvested and treated with a lysis buffer to extract total proteins. The extracted proteins were quantitated by the BCA (bicinchonic acid) method. For each experiment group, 90 μl of protein solution and 10 μl of L-DOPA (L-3,4-dihydroxyphenylalanine; Sigma) were added and reacted for 30 min at 37° C. The resultants were analyzed to measure their absorbance values at 405 nm for evaluating tyrosinase activities.

fibronectin = experiment: Fibronectin production in NIH3T3 fibroblasts (Fibronectin ELISA kit); format: cell-based; conditions: NIH3T3, 1 μg/ml or 10 μg/ml, 72 hr, FIG. 10
Protocol: as §4

C57BL/6 Mice melanocytes = experiment: Inhibition of melanin generation in α-MSH-treated melanocytes; format: cell-based; conditions: 200 μg/ml α-MSH alone (positive control), 3 days, FIG. 4
Protocol: To evaluate reduction of melanin pigment by the peptide 2 synthesized in Example 1, C57BL/6 Mice melanocytes cultured were incubated with α-MSH (melanocyte stimulating hormone; Sigma) and then with the peptide in the determined concentrations to measure inhibition effects on melanin generation. Mice melanocytes were cultured in DMEM (Dulbecco's modified Eagle's media; Sigma) supplemented with 10% FBS (fetal bovine serum; Sigma) at 37° C. under 5% CO2 conditions. Cells were cultured in a 24-well culture plate with a density of 1×10^5 cells/well and their adhesion to the plate was observed. Then, cells were incubated with each test group for 3 days: (a) a solvent as control; (b) 200 μg/ml α-MSH as a positive control; and (c) 200 μg/ml α-MSH plus 1 μg/ml or 10 μg/ml peptide 2. The test materials were prepared in such a manner that each component was dissolved in medium solvent and diluted at an equivalent rate to the aforementioned concentration using a mixed solvent of propylene glycol:ethanol:distilled water (5:3:2). After removing culture medium by centrifugation, melanin contents in each group could be observed with naked eye. […]
More specifically, cells were washed with PBS (phosphate buffered saline) and treated with 1 N sodium hydroxide. The resultants were analyzed to measure their absorbance values at 400 nm. […]

NH2-Gly-Arg-Gly-Asp-Tyr-Ile-Trp-Ser-Leu-Asp-Thr-Gln-OH (H-GRGDYIWSLDTQ-OH) [peptide 2]
α-MSH-induced melanosomes (B16F10 melanoma cells): eliminated | mRNA level of MITF [1]: inhibit | mRNA level of TRP2 (TRP2): inhibit | production of procollagen (procollagen): remarkably promote | mRNA level of TRP1 [2]: inhibit | residual activity over time (heat stability) ([3]; 10 μg/ml in 50 mM Tris-HCl buffer (pH 8.0)): not to be decreased over time | reduction of tyrosinase activity (tyrosinase; 200 μg/ml α-MSH plus 1 μg/ml or 10 μg/ml peptide, versus α-MSH only): about 30% | level of fibronectin (fibronectin): increase

recombinant TGF-β1: Recombinant TGF-β1 (Sigma) produced from E. coli, used as control
residual activity over time (heat stability) ([3]; 1 μg/ml in 50 mM Tris-HCl buffer (pH 8.0)): sharply decreased with the lapse of time

α-MSH: melanocyte stimulating hormone (Sigma), inducer of melanin generation, positive control (SYSMEHFRWGKPV; ends and bridges not checked; UniProt P01189 138-150, looked up) [reference compound]
melanin content (C57BL/6 Mice melanocytes): strikingly increased | tyrosinase activity (tyrosinase; 200 μg/ml α-MSH only): highly elevated level
